Measurements taken from publication PMC12707362, “Targeting Aurora Kinases as Essential Cell‐Cycle Regulators to Deliver Multi‐Stage Antimalarials Against Plasmodium Falciparum” (Angewandte Chemie (International Ed. in English), 2025).
Where two headings read alike, the source gives them in different places.

Columns and labels:
[1] = system: P. berghei liver schizonts in HepG2-A16-CD81EGFP cells; experiment: P. berghei (PbLuc) liver stage assay; format: cell-based; settings: Plasmodium berghei
Source text: (B) Antiplasmodial activity of nine anticancer aurora kinase inhibitors (selected based on their PfNF54 ABS activity) against P. falciparum multidrug-resistant ABS parasites (PfDd2 and PfK1). (C) Kinobead competitive inhibition data.
Plasmodium berghei (Pb) sporozoites were obtained by dissecting the salivary glands of infected Anopheles stephensi mosquitoes. These were provided by The SporoCore, at the University of Georgia, GA, USA (SporoCore.uga.edu). The parasites utilised a GFP-Lucama1-eef1 reporter line^[5]. These engineered parasites, termed Pb-Luc, were used to infect HepG2-A16-CD81EGFP cells. HepG2-A16-CD81EGFP cells stably transformed to express a GFP-CD81 fusion protein^[6] were cultured at 37 °C in 5% CO2 in DMEM (Invitrogen, Carlsbad, USA) supplemented with 10% FBS (Corning, NY, USA), 1X Pen/Strep/Glu (Thermo Fisher Scientific, USA). Compounds were prepared as 10 mM solutions in DMSO, and 10 nL of each (resulting in a final DMSO concentration of 0.1% per well) was transferred into assay plates using an ECHO 650 (Beckman). Concentrations ranged from 10 µM to 0.5 nM. Atovaquone (0.1 µM) served as a positive control, while 0.1% DMSO was used as a negative control. Liver stage (PbLuc) screening has been previously described^[7]. Human hepatic cells (3 × 10^3; HepG2-A16-CD81-EGFP) suspended in 5 µL of DMEM medium ([…], supplemented with 5% FBS, 5× Pen/Strep/Glu) were seeded in 1536-well plates (Greiner BioOne) using the MultiFlo FX (Agilent) 20 h before infection. PbLuc sporozoites, isolated from the salivary glands of A. stephensi mosquitoes, were filtered twice through a 20 µm nylon pore cell strainer. The sporozoites were resuspended in screening media, counted with a hemocytometer, and diluted to a final concentration of 200 sporozoites per µL. Each well received 1,000 sporozoites in 5 µL, dispensed via the GNF Dispenser II (GNF Systems). […] Luminescence was measured immediately with the Pherastar FSX reader (BMG Labtech). Luminescence values were normalized using the positive and negative controls. EC50 values were calculated with CDD Vault (Burlingame, CA). […]

[2] = system: pool of barcoded drug-resistant P. falciparum parasites (Dd2 and 3D7 backgrounds); format: cell-based, Plasmodium falciparum; settings: 3xIC50
Protocol: The pool consisted of 52 lines (Supplementary File S2) in both the Dd2 and 3D7 backgrounds, including wild-type, that were barcoded at the pfpare locus (PF3D7_0709700)^[18], with unique 11-bp barcode sequences. The pool (triplicate cultures of 1 mL) was exposed to 3 xIC50 of each test compound, including the positive control compound halofuginone that targets prolyl tRNA synthetase. Growth of the pool was measured every 2–3 days by flow cytometry (Beckman CytoFlex 5), staining with 1xSYBR Green I and 200 nM MitoTracker Deep Red, and parasitemia maintained within a range <5% parasitemia. At day 14, samples were harvested, lysed with 0.05% saponin and parasite pellets collected. Barcodes were amplified by PCR and quantified by sequencing using an Oxford Nanopore minION. The change in barcode proportion (log2 fold change, LFC) was measured relative to the no-drug control, with LFC>2.5 indicating cross-resistance.

[3] = system: Plasmodium kinases; experiment: Kinobead competitive inhibition; format: binding; settings: 10 µM, log2 fold change below -1 versus vehicle

COc1cc(N2CCC(N3CCN(C)CC3)CC2)ccc1Nc1ncc(Cl)c(Nc2ccccc2S(=O)(=O)C(C)C)n1 [TAE684, NVP-TAE684]
IC50 ([1]; read-out: IC50 P. berghei liver schizonts): < 200 nM
IC50 ([1]; 48 h, PbLuc, read-out: Pb liver stage IC50): 660 nM
barcode population Day 14 ([2]; line 3D7 (Wild type)): 5.080
barcode population Day 14 ([2]; line 3D7 ABCI3 R2180P): 2.690
barcode population Day 14 ([2]; line 3D7 ACS10 M300I): 3.200
barcode population Day 14 ([2]; line 3D7 ACS11 D648Y): 0.620
barcode population Day 14 ([2]; line 3D7 ATP2 CNV2): 2.100
barcode population Day 14 ([2]; line 3D7 DHFR-TS G378E): 0.990
barcode population Day 14 ([2]; line 3D7 DHFR-TS I403L): 3.400
barcode population Day 14 ([2]; line 3D7 FTb A515T): 1.770
barcode population Day 14 ([2]; line 3D7 MDR2 K840N): 1.670
barcode population Day 14 ([2]; line 3D7 NCR1 A1108T): 2.230
barcode population Day 14 ([2]; line Dd2 (Wild type)): 5.040
barcode population Day 14 ([2]; line Dd2-pol-delta D308A-E310A): 0.01
barcode population Day 14 ([2]; line Dd2 ATP4 G358S): 1.130
barcode population Day 14 ([2]; line Dd2 ATP4 L927V): 1.370
barcode population Day 14 ([2]; line Dd2 ATP4 Q172H): 3.070
barcode population Day 14 ([2]; line Dd2 AcAS A597V): 0.650
barcode population Day 14 ([2]; line Dd2 AcAS T648M): 2.430
barcode population Day 14 ([2]; line Dd2 AsnRS R487S): 1.530
barcode population Day 14 ([2]; line Dd2 CARL I1139K-a): 0.010
barcode population Day 14 ([2]; line Dd2 CARL I1139K-b): 0.230
barcode population Day 14 ([2]; line Dd2 CARL V1103L): 0.680
barcode population Day 14 ([2]; line Dd2 CLK3 H259P): 1.590
barcode population Day 14 ([2]; line Dd2 CPSF Y408S E): 1.340
barcode population Day 14 ([2]; line Dd2 CPSF Y408S S): 0.580
barcode population Day 14 ([2]; line Dd2 CRT M343L): 2.390
barcode population Day 14 ([2]; line Dd2 CSC1 L800P): 1.280
barcode population Day 14 ([2]; line Dd2 DHFR-TS S216R): 1.710
barcode population Day 14 ([2]; line Dd2 DHODH C276Y): 3.290
barcode population Day 14 ([2]; line Dd2 DHODH F227I): 0.650
barcode population Day 14 ([2]; line Dd2 DHODH I263F): 0.120
barcode population Day 14 ([2]; line Dd2 DHODH L531F): 0.480
barcode population Day 14 ([2]; line Dd2 GGPPS S228T): 0.800
barcode population Day 14 ([2]; line Dd2 HSP90 A41S): 2.760
barcode population Day 14 ([2]; line Dd2 IleRS E180D): 2.660
barcode population Day 14 ([2]; line Dd2 IleRS L810F): 1.180
barcode population Day 14 ([2]; line Dd2 IleRS V500A): 0.960
barcode population Day 14 ([2]; line Dd2 MCP D195N): 0.270
barcode population Day 14 ([2]; line Dd2 MCP P214T): 5.790
barcode population Day 14 ([2]; line Dd2 PI4K S743F+H1484Y): 1.350
barcode population Day 14 ([2]; line Dd2 PI4K S1320L+L1418F): 1.960
barcode population Day 14 ([2]; line Dd2 PROTB5 A20V): 1.090
barcode population Day 14 ([2]; line Dd2 PROTB5 M45I): 1.500
barcode population Day 14 ([2]; line Dd2 ProRS L482H): 6.690
barcode population Day 14 ([2]; line Dd2 QRP1 D1863Y): 5.420
barcode population Day 14 ([2]; line Dd2 TyrRS S234C): 2.590
barcode population Day 14 ([2]; line Dd2 UDP-GT F37V): 0.250
barcode population Day 14 ([2]; line Dd2 cytBC1 G33V): 1.410
barcode population Day 14 ([2]; line Dd2 cytBC1 V284L): 1.550
barcode population Day 14 ([2]; line Dd2 eEF2 L755F): 1.200
barcode population Day 14 ([2]; line Dd2 eEF2 Y186N): 1.260
barcode population Day 14 ([2]; line Dd2 kelch13 C580C): 2.860
barcode population Day 14 ([2]; line Dd2 kelch13 C580Y): 2.440
barcode population Day 14 ([2]; line Dd2 kelch13 R539T): 0.670
Plasmodium kinases competed from Kinobeads [3]: three Plasmodium kinases were competed from Kinobeads
